A short description of this test: Inhibition of Tel-fused RON kinase-mediated mouse BaF3 cell proliferation.

The values that follow come from BindingDB's records for doi:10.1073/pnas.0609412103 (Genomics Institute of The Novartis Research Foundation, 2007).

SMILES strings stand for the structures.

In the case of `COc1cc(N2CCC(N3CCN(C)CC3)CC2)ccc1Nc1ncc(Cl)c(Nc2ccccc2S(=O)(=O)C(C)C)n1` [TAE684], half-maximal inhibition (IC50) required 1630 nM.
